Assay results reported in US6355630B1, “Estra-1,3,5(10)-triene-7α-thioethers” (priority 1997, dated 2002).
Several values for one entry are separate records, joined by “and”; a condition that tells them apart may be missing. Identical values can stand only once. Like-named read-outs stand apart in the source and are kept apart here.

Legend:
human estrogen receptor = biological target: T1, human estrogen receptor (Homo sapiens, UniProt P03372); test: In vitro estrogen receptor binding test procedure ([3H]-17β-estradiol competition)
T1 construct: expressed in transfected cells; host or cells: Chinese Hamster ovary (CHO) cells; ribosome-free cytosol
T1 sequence (P03372 1-595): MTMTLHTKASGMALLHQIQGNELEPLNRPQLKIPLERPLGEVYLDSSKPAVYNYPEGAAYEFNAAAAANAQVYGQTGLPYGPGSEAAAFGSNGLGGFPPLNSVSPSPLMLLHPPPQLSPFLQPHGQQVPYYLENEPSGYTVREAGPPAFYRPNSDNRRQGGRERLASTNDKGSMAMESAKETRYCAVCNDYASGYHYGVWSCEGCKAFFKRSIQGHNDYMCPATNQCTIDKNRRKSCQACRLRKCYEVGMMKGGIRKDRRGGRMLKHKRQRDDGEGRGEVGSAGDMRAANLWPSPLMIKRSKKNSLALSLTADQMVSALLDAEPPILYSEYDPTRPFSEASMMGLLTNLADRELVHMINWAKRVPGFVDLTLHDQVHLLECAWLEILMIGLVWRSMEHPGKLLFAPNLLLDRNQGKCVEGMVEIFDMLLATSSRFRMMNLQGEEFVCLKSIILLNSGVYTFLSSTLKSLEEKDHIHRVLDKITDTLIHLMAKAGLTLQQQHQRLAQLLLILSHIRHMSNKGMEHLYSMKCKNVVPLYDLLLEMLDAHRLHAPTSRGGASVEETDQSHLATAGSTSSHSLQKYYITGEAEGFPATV
Description: In vitro Estrogen Receptor Binding Test Procedure
Chinese Hamster ovary (CHO) cells overexpressing the estrogen receptor were grown in […] dishes in DMEM+10% dextran coated charcoal, stripped fetal bovine serum. The plates were washed twice with PBS and once with 10 mM Tris-HCl, pH 7.4, 1 mM EDTA. Cells were harvested by scraping the surface and then the cell suspension was placed on ice. Cells were disrupted with a hand-held motorized tissue grinder using two, 10-second bursts. The crude preparation was centrifuged at 12,000 g for 20 minutes followed by a 60 minute spin at 100,000 G to produce a ribosome free cytosol. The cytosol was then frozen and stored at −80° C. Protein concentration of the cytosol was estimated using the BCA assay with reference standard protein.
Binding Test Procedure Conditions
100 uG/100 uL of the receptor preparation was aliquoted per well. […] The plate was incubated at room temperature for 2.5 h. At the end of this incubation period 150 uL of ice-cold dextran coated charcoal (5% activated charcoal coated with 0.05% 69K dextran) was added to each well and the plate was immediately centrifuged at 99 g for 5 minutes at 4° C. 200 uL of the supernatant solution was then removed for scintillation counting. Samples were counted to 2% or 10 minutes, whichever occurs first. […] Also, wells containing radioactivity but no cytosol were processed with charcoal to estimate unremovable DPM of [^3H] […] 96-well plates were used because they have proven to bind the least amount of estradiol.
Counts per minute (CPM) of radioactivity were automatically converted to disintegrated per minute (DPM) by the Beckman LS 7500 Scintillation Counter using a set of quenched standards to generate a H# for each sample. To calculate the % of estradiol binding in the presence of 100 or 500 fold competitor the following formula was applied:
((DPM sample−DPM not removed by charcoal/(DPM estradiol−DPM not removed by charcoal))×100%=% of estradiol binding
For the generation of IC50 curves, % binding is plotted vs compound. […] Values are reported as IC50 values. […] For a description of these methods, see Hulme, E. C., ed. 1992. Receptor-Ligand Interactions: A Practical Approach. IRL Press, New York.(see especially chapter 8).
Compounds were tested for their ability to displace estradiol in a human ER-receptor preparation as described above.

Ishikawa uterine cells = test: Ishikawa cell alkaline phosphatase test procedure; format: cell-based, human; conditions: for Alkaline phosphatase activity, percent of response related to 1 nM 17β-estradiol: 48 h; for EC50: reference standards, read-out: ED50, estrogenic activity by the alkaline phosphatase method
Description: Ishikawa Cell Alkaline Phosphatase Test Procedure
Cell Maintenance and Treatment
Ishikawa cells were maintained in DMEM/F12 (50%:50%) containing phenol red+10% fetal bovine serum and the medium was supplemented with 2 mM Glutamax, 1% Pen/Strap and 1 mM sodium pyruvate. Five days prior to the beginning of each evaluation (treatment of cells) the medium was changed to phenol red-free DMEM/F12+10% dextran coated charcoal stripped serum. On the day before treatment, cells were harvested using 0.5% trypsin/EDTA and plated at a density of 5×10^4 cells/well in 96-well tissue culture plates. […] Cells were treated for 48 h prior to assay. […] Sample population for at each dose was n=8.
Alkaline Phosphatase Test Procedure
At the end of 48 h the media was aspirated and cells were washed three times with phosphate buffered saline (PBS); 50 μL of lysis buffer (0.1 M Tris-HCl, pH 9.8, 0.2% Triton X-100) was added to each well. Plates were placed at −80° C. for a minimum of 15 minutes. Plates were thawed at 37° C. followed by the addition of 150 μL of 0.1 M Tris-HCl, pH 9.8, containing 4 mM para-nitrophenylphosphate (pNPP) to each well (final concentration, 3 mM pNPP).
Absorbance and slope calculations were made using the KineticCalc Application program (Bio-Tek Instruments, Inc., Winooski, Vt.). Results are expressed as the mean +/−S.D. of the rate of enzyme reaction (slope) averaged over the linear portion of the kinetic reaction curve (optical density readings every 5 minutes for 30 minutes absorbance reading).
The four compounds were used as reference standards:
A description of these methods is described by Holinka, C. F., Hata, H., Kuramoto, H. and Gurpide, E. (1986) Effects of steroid hormones and antisteroids on alkaline phosphatase activity in human endometrial cancer cells (Ishikawa Line). Cancer Research, 46:2771-2774, and by Littlefield, B. A., Gurpide, E., Markiewicz, L., McKinley, B. and Hochberg, R. B. (1990) A simple and sensitive microtiter plate estrogen bioassay based on stimulation alkaline phosphatase in Ishikawa cells; Estrogen action of D5 adrenal steroids. Endocrinology, 6:2757-2762.

rat uterus = test: Rat uterotrophic/antiuterotrophic test procedure; format: in vivo; conditions: 1 ug 17β-estradiol, daily ip, 4-day immature rat
Description: Rat Uterotrophic/Antiuterotrophic Test Procedure
The estrogenic and antiestrogenic properties of the compounds were determined in a 4-day immature rat uterotrophic assay (as described previously by L. J. Black and R. L. Goode, Life Sciences, 26, 1453 (1980)). Immature Sprague-Dawley rats (female, 18 days old) were tested in groups of six. […] On day 4 the animals were sacrificed by CO2 asphyxiation and their uteri were removed and stripped of excess lipid, any fluid removed and the wet weight determined. A small section of one horn was submitted for histology and the remainder used to isolate total RNA in order to evaluate complement component 3 gene expression.
Representative compounds of this invention were evaluated in the rat uterotrophic/antiuterotrophic assay to determine their in vivo effects on the rat uterus.

[1] = 1 uM compound + 1 nM E2, antagonist mode

| SMILES | Alkaline phosphatase activity, percent of response related to 1 nM 17β-estradiol (Ishikawa uterine cells; 0.01 uM compound, agonist mode) [%] | Alkaline phosphatase activity, percent of response related to 1 nM 17β-estradiol (Ishikawa uterine cells; 0.1 uM compound, agonist mode) [%] | Alkaline phosphatase activity, percent of response related to 1 nM 17β-estradiol (Ishikawa uterine cells; [1]) [%] | Alkaline phosphatase activity, percent of response related to 1 nM 17β-estradiol (Ishikawa uterine cells; 1 uM compound, agonist mode) [%] | also measured |
| --- | --- | --- | --- | --- | --- |
| CC12CCC3c4ccc(O)cc4CC(Sc4ccc(-c5ccc(C=O)cc5)cc4)C3C1CCC2O (stereo not drawn) [Example 12, (7α,17β) 7-(4-(4′-Formylbiphenyl)]thio-estra-1,3,5(10)-triene-3,17-diol] | 17 | 67 | 92 | 89 | IC50 (human estrogen receptor; read-out: Receptor IC50): 300 nM |
| COc1ccc2c(c1)CC(Sc1ccc(OCCN3CCCCC3)cc1)C1C2CCC2(C)C(OC(C)=O)CCC12 (stereo not drawn) [Example 14, (7α,17β) 3-Methoxy-7-{4-[2-(piperdin-1-yl)]ethoxyphenyl}thio-estra-1,3,5(10)-triene-17-ol-17-acetate] | 2 | 3 | 105 | 39 | Receptor IC50 (human estrogen receptor; displacement of [3H]17β-estradiol, CHO cell cytosol ER preparation): No Binding; Competition for the human estrogen receptor (human estrogen receptor; in words, compounds with 17β-acetate): competed less effectively |
| C[C@]12CC[C@@H]3c4ccc(O)cc4CC[C@H]3[C@@H]1CC[C@H]2O [17α-estradiol, reference compound] | – | – | – | – | EC50 (Ishikawa uterine cells): 1.42 nM |
| C[C@]12CC[C@@H]3c4ccc(O)cc4[C@@H](O)[C@@H](Sc4ccc(Br)cc4)[C@H]3[C@@H]1CC[C@@H]2O [Example 7, (6α,7α,17β) 7-(4-Bromophenyl)thio-estra-1,3,5(10)-triene-3,6,17-triol] | 46 | 58 | 98 | 66 | IC50 (human estrogen receptor): 800 nM |
| COc1ccc2c(c1)CC(Sc1ccc(OCCN3CCCCC3)cc1)C1C2CCC2(C)C(O)CCC12 (stereo not drawn) [Example 15, (7α,17β) 3-Methoxy-7-{4-[2-(piperdin-1-yl)]ethoxyphenyl}thio-estra-1,3,5(10)-triene-17-ol] | 0 | 0 | 69 | 22 | – |
| CC(=O)O[C@H]1CC[C@H]2[C@@H]3[C@H](Sc4ccc(Br)cc4)C(=O)c4cc(O)ccc4[C@H]3CC[C@]12C [Example 5, (7α,17β) 17-Acetoxy-7-(4-bromophenyl)thio-3-hydroxy-estra-1,3,5(10)-trien-6-one] | 58 | 108 | 106 | 104 | Behaviour in the uterine cell line (agonist/antagonist) (Ishikawa uterine cells; in words, from Table 2): fully efficacious agonists |
| CC(=O)O[C@H]1CC[C@H]2[C@@H]3[C@H](Sc4ccc(O)cc4)C(=O)c4cc(O)ccc4[C@H]3CC[C@]12C [Example 1, (7α,17β) 17-Acetoxy-3-hydroxy-7-(4-hydroxyphenyl)thio-estra-1,3,5(10)-triene-6-one] | 7 | 9 | 76 | 29 | – |
| C[C@]12CC[C@@H]3c4ccc(O)cc4CC[C@H]3[C@@H]1CCC2=O [estrone, reference compound] | – | – | – | – | EC50 (Ishikawa uterine cells; Homo sapiens, Ishikawa): 0.36 nM |
| C[C@]12CC[C@@H]3c4ccc(O)cc4CC[C@H]3[C@@H]1CC[C@@H]2O [17β-estradiol, reference compound] | – | – | – | – | Uterine wet weight (rat uterus): 87.6 mg and 82.1 mg and 92.6 mg and 83.8 mg and 94.6 mg; EC50 (Ishikawa uterine cells; Homo sapiens, Ishikawa): 0.03 nM |
| CN(C)C(=O)/C=C/c1ccc(S[C@@H]2Cc3cc(O)ccc3[C@H]3CC[C@]4(C)[C@@H](O)CC[C@H]4[C@@H]32)cc1 [Example 10, (7α,17β) 7-{4-[(E)-2-(N,N-Dimethylcarbamoyl)-ethenyl]phenyl}thio-estra-1,3,5(10)-triene-3,17-diol] | 0 | 12 | 57 | 28 | – |
| C[C@]12CC[C@@H]3c4ccc(O)cc4CC[C@H]3[C@@H]1C[C@@H](O)[C@@H]2O [estriol, reference compound] | – | – | – | – | EC50 (Ishikawa uterine cells; Homo sapiens, Ishikawa): 0.13 nM |
